Structures can show the parent of a compound that is named as a salt.
System: not given
Conditions: not given

| Compound | melting point [°C] |
| --- | --- |
| COc1cccc2[nH]c(-c3ccccc3)c(CCN3CCCCC3)c12 | 260 to 262 |
| Cc1ccc2[nH]c(-c3ccccc3)c(CCN3CCCCC3)c2c1 (as salt: oxalate) | 163 to 164 |
| Fc1ccc2c(CCN3CCCCC3)c(-c3ccccc3)[nH]c2c1 (as salt: oxalate) | 214 to 215 |
| Fc1cc(F)c2[nH]c(-c3ccccc3)c(CCN3CCCCC3)c2c1 (as salt: oxalate) | 185 to 187 |
| c1ccc(-c2ccc3c(CCN4CCCCC4)c(-c4ccccc4)[nH]c3c2)cc1 (as salt: oxalate) | 129 to 131 |
| CC(Cc1c(-c2ccccc2)[nH]c2ccccc12)N1CCCCC1 (centres unmarked) (as salt: oxalate) | 240 |

Continued, values first:

| melting point [°C] | Compound |
| --- | --- |
| 121 to 122 | Brc1ccc2[nH]c(-c3ccccc3)c(CCN3CCCCC3)c2c1 (as salt: oxalate) |
| 206 to 207 | Brc1cccc2c(CCN3CCCCC3)c(-c3ccccc3)[nH]c12 (as salt: oxalate) |
| 178 to 179 | Clc1cccc2c(CCN3CCCCC3)c(-c3ccccc3)[nH]c12 (as salt: oxalate) |
| > 230 | Brc1cccc2[nH]c(-c3ccccc3)c(CCN3CCCCC3)c12 (as salt: oxalate) |
| > 230 | Brc1ccc2c(CCN3CCCCC3)c(-c3ccccc3)[nH]c2c1 (as salt: oxalate) |
| 159 to 161 | Cc1cccc2c(CCN3CCCCC3)c(-c3ccccc3)[nH]c12 (as salt: oxalate) |
| 203 to 205 | COc1cccc2c(CCN3CCCCC3)c(-c3ccccc3)[nH]c12 (as salt: oxalate) |
| 141 to 143 | Fc1ccc2[nH]c(-c3ccccc3)c(CCN3CCCCC3)c2c1 (as salt: trifluoroacetic acid salt) |

Molecular target: human dopamine D2 receptor (Homo sapiens, UniProt P14416)
Conditions: cited from earlier work

Sequence of human dopamine D2 receptor (P14416 whole entry): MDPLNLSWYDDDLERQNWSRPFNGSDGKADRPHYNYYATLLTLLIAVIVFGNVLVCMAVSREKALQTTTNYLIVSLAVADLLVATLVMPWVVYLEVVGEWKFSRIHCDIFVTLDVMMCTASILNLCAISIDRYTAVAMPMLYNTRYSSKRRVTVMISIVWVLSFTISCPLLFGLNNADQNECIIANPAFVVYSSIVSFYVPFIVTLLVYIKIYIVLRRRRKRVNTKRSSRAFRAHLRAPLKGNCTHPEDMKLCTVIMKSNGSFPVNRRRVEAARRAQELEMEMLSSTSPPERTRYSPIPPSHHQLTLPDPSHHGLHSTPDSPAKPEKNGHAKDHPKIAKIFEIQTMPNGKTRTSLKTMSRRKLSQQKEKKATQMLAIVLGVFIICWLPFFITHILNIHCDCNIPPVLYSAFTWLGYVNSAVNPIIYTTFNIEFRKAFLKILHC

| Compound | activity at the human dopamine D2 receptor |
| --- | --- |
| COc1cccc(C(O)C2CCN(CCc3ccc(F)cc3)CC2)c1OC (stereo not drawn) [MDL-100,907, (+)-α-(2,3-dimethoxyphenyl)-1-[2-(4-fluorophenyl)ethyl]-4-piperidinemethanol] | essentially devoid of activity |

System: schizophrenic patients
Conditions: multicentre, placebo-controlled study; cited from earlier work

| Compound | antipsychotic efficacy in clinical study | neurological adverse effects in clinical study |
| --- | --- | --- |
| COc1cccc(C(O)C2CCN(CCc3ccc(F)cc3)CC2)c1OC (stereo not drawn) [MDL-100,907, (+)-α-(2,3-dimethoxyphenyl)-1-[2-(4-fluorophenyl)ethyl]-4-piperidinemethanol] | demonstrated efficacy | no neurological adverse effects |

Source: patent US6486153B1, “Phenylindole derivatives as 5-HT2A receptor ligands” (Merck Sharp & Dohme Ltd., priority 1997, dated 2002)
